Results from patent US7314620B2, “Methods for diagnosis and treatment of PH domain signal transduction disorders” (New York University, priority 1995, dated 2008).
Where “and” joins values, the source holds several entries; their conditions need not be identical. Identical values can stand only once. Entries after “also recorded” stand apart in the source; their conditions may differ. Like-named read-outs stand apart in the source and are kept apart here.

Legend:
PLCδ-PH [1] = biological target: T1, PLCδ-PH (Rattus norvegicus, UniProt P10688); test: Spin-column competition assay for 3H-I(145)P3 binding to PLCδ-PH; details: for competition for I(145)P3 binding by lipid vesicles: lipid at 5% in DMPC vesicles or pure DMPC, assuming 50% of lipid on the surface
T1 construct: initiator methionine (N); made in house; host or cells: Escherichia coli (pET11a, T7 system)
T1 sequence (P10688 20-136): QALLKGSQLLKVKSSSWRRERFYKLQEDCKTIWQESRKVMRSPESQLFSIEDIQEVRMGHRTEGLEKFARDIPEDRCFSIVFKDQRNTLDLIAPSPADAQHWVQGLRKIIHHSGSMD
Procedure: A spin-column based competition assay was employed to determine relative affinities of other inositol polyphosphates for PLCδ-PH. […] The sample (40 μl) was then applied to a Biogel P6 gel filtration spin-column. […] Each curve represents the mean of two or more experiments.
The sample was then applied to a pre-spun 1 ml spin-column containing Biogel P6 desalting medium. The spin-column was then centrifuged for 4 minutes at 900 g. Essentially all of the protein was determined to pass through the column under these conditions, and no significant counts were seen to pass through the column in the absence of protein. After spinning, all of the material that passed through the column was added to scintillation fluid for counting. Counts were normalized to those obtained in the absence of competitor, and plotted as fraction of maximal binding. […]
Values for which a precise number is given represent the mean of at least two experiments.

PLCδ-PH [2] = biological target: T1, PLCδ-PH; test: Gel filtration of 3H-labeled IP3 with PH domain; assay type: binding; details: PH domain 10 μM, IP3 20 μM
Procedure: (§1) For gel-filtration studies, PH domain at 10 μM was mixed with 20 μM IP3, containing 100 nCi of the appropriate ^3H-labeled isomer. A 200 μl sample was applied to a BioRad BiogelP6 desalting column, and 40 fractions of 300 μl were collected. A Bio-Rad protein assay was performed on […] of each fraction to determine the elution position of the protein, and scintillation counting of the remainder was used to detect the elution positions of IP3. Experiments were performed in either 50 mM MOPS, 100 mM NaCl, pH 6.8, or 100 mM NH4OAc, pH 6.8.

[3] = biological target: T2, PlecN-PH (N-terminal PH domain of pleckstrin) (Homo sapiens, UniProt P08567); test: Gel filtration of 3H-labeled IP3 with PH domain; assay type: binding; details: PH domain 10 μM, IP3 20 μM
T2 construct: residues 1-110 of pleckstrin (PlecN-PH); initiator methionine (N); made in house; host or cells: Escherichia coli (pET11a, T7 system)
T2 sequence (P08567 1-110): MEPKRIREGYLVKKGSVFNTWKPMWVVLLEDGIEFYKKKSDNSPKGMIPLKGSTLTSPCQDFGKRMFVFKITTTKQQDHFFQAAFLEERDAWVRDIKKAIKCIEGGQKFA
Procedure: as §1

[4] = biological target: T3, Dyn-PH (PH domain of dynamin) (Homo sapiens, UniProt Q05193); test: Gel filtration of 3H-labeled IP3 with PH domain; assay type: binding; details: PH domain 10 μM, IP3 20 μM
T3 construct: The PH domains from PLC-δ1, and dynamin, as well as the N-terminal PH domain of pleckstrin; made in house; host or cells: Escherichia coli (T7 system)
T3 sequence (Q05193 519-625 limits assumed): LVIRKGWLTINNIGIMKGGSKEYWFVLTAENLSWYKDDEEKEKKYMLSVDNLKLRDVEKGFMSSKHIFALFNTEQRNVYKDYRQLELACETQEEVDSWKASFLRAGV
Procedure: as §1

[5] = biological target: T4, PLCδ-PH (PH domain of rat PLC-δ1) (Rattus norvegicus, UniProt P10688); test: Isothermal titration calorimetry of inositol polyphosphate / PIP2 vesicle binding to PLCδ-PH
T4 construct: initiator methionine (N); made in house; host or cells: Escherichia coli (pET11a, T7 system)
T4 sequence (P10688 20-136): T1 sequence (P10688 20-136)
Procedure: The resulting titration curve was fit using Omega software (Wiseman et al., 1989).
All experiments utilized the OMEGA instrument from MicroCal (Wiseman, T. et al., Anal. Biochem. 179, 131-137, 1989), in the laboratory of Prof. Julian Sturtevant at Yale. Titrations were performed at 25° C. in 50 mM MOPS, 100 mM NaCl, pH 6.8 or 100 mM NH4OAc at pH 6.8. […] For each titration, PH domain solution was dialyzed exhaustively against the buffer used for dilution of highly concentrated stocks of ligand. Heats for dilution of the ligand solutions were determined in separate titrations of ligand into buffer solution present in the cell.
Higher concentrations were employed for weaker binding events. […] Stoichiometry, binding constant (Kβ) and ΔH were all allowed to float in the fitting procedure.
A titration curve such as that to an equation describing a simple-binding reaction (Wiseman, T. et al., Anal. Biochem. 179, 131-137, 1989). From this fit, values for the binding constant, stoichiometry and ΔH for the binding reaction are ascertained. […] Ferris, C. D. et al, Nature, 342, 87-89, 1989.

[6] = system: any PH domain (PLCδ-PH, Dyn-PH, PlecN-PH); test: Centrifugation-based assay of PH domain binding to lipid vesicles; details: lipid at 5% in DMPC vesicles
Procedure: Attempts to detect PH domain association with lipid vesicles were performed exactly as described by Harlan, J. E. et al., Nature 371, 168-170, 1994. In addition to using the BCA protein assay reagent, for which lipid blanks were rather high compared with the values expected for the protein concentrations employed, we also measured OD278 of the supernatants after addition of SDS in order to detect removal of protein upon pelleting vesicles. […] Initially, we performed a centrifugation-based assay, using the conditions described by Harlan, J. E. et al., Nature 371, 168-170, 1994. […] Similarly, we were unable to detect association of any of the PH domains with the same vesicles by using size-exclusion chromatography to separate protein and lipid. Any complexes between the PH domains and these vesicles therefore form with low affinity and/or have fast dissociation kinetics, such that they dissociate in the separation methods employed.

[7] = ratio of molar excess for 50% competition to that of unlabeled I(145)P3, multiplied by 0.2 μM, read-out: KD (μM) by competition assay
[8] = from concentrations required to reduce 3H-I(145)P3 binding by 50%, read-out: KD from competition assay

O=P(O)(O)OC1C(O)C(O)C(OP(=O)(O)O)C(OP(=O)(O)O)C1O (single isomer, unassigned) [D-I(134)P3]
Kd (PLCδ-PH [1]; [7]): > 12 µM
binding detected by gel filtration (PLCδ-PH [2]): no binding
binding detected by gel filtration [3]: neither Dyn-PH nor PlecN-PH was seen to bind; also recorded: Neither PlecN-PH nor Dyn-PH showed evidence of binding
binding detected by gel filtration [4]: neither Dyn-PH nor PlecN-PH was seen to bind; also recorded: Neither PlecN-PH nor Dyn-PH showed evidence of binding

O=P(O)(O)OC1C(O)C(O)C(OP(=O)(O)O)C(OP(=O)(O)O)C1O (single isomer, unassigned) [D-I(245)P3]
Kd (PLCδ-PH [1]; [8]): 7.5 µM
Kd (PLCδ-PH [1]; [7]): 4.7 µM

O=P(O)(O)O[C@H]1[C@H](O)[C@@H](O)[C@H](OP(=O)(O)O)[C@@H](O)[C@H]1O [D-I(14)P2]
Kd (PLCδ-PH [1]; [8]): > 50 µM
Kd (PLCδ-PH [1]; [7]): > 12 µM

O=P(O)(O)O[C@@H]1C(O)[C@@H](OP(=O)(O)O)[C@@H](O)C(O)[C@H]1O (stereo partly drawn) [D-I(24)P2]
Kd (PLCδ-PH [1]; [7]): > 12 µM

O=P(O)(O)O[C@@H]1[C@@H](O)[C@H](O)[C@H](O)[C@H](O)[C@H]1OP(=O)(O)O [D-I(45)P2]
Kd (PLCδ-PH [1]; [8]): > 50 µM
Kd (PLCδ-PH [1]; [7]): > 12 µM

O=P(O)(O)O[C@H]1[C@H](OP(=O)(O)O)[C@@H](OP(=O)(O)O)[C@H](O)[C@@H](O)[C@H]1OP(=O)(O)O [D-I(1256)P4]
Kd (PLCδ-PH [1]; [7]): 12 µM

O=P(O)(O)O[C@H]1[C@H](O)[C@@H](OP(=O)(O)O)[C@H](OP(=O)(O)O)[C@@H](OP(=O)(O)O)[C@H]1O [D-I(1345)P4]
Kd (PLCδ-PH [1]; [7]): > 2 µM

O=P(O)(O)O[C@@H]1[C@@H](O)[C@H](OP(=O)(O)O)[C@@H](OP(=O)(O)O)[C@@H](O)[C@H]1OP(=O)(O)O [D-I(1346)P4]
Kd (PLCδ-PH [1]; [7]): 5.3 µM

O=P(O)(O)O[C@H]1[C@H](OP(=O)(O)O)[C@@H](OP(=O)(O)O)[C@@H](O)[C@@H](O)[C@@H]1OP(=O)(O)O [D-I(3456)P4]
Kd (PLCδ-PH [1]; [7]): 3.2 µM

CCCCCCCCCCCCCC(=O)OC[C@H](COP(=O)([O-])OCC[N+](C)(C)C)OC(=O)CCCCCCCCCCCCC [DMPC, dimyristoylphosphatidylcholine]
competition for I(145)P3 binding by lipid vesicles (PLCδ-PH [1]): did not compete
competition for I(145)P3 binding by lipid vesicles (PLCδ-PH [1]; listed as PC): no detectable competition

O=P(O)(OCC(O)CO)OC1C(O)C(O)C(O)C(O)C1O (centres unmarked) [GPI, 1-(a-glycerophosphoryl)-inositol]
Kd (PLCδ-PH [1]; [7]): > 60 µM

O=P(O)(O)O[C@@H]1[C@@H](O)[C@@H](O)[C@@H](OP(=O)(O)OC[C@H](O)CO)[C@H](O)[C@H]1OP(=O)(O)O [GPIP2, 1-(a-glycerophosphoryl)-D-inositol-4,5-bisphosphate]
Kd (PLCδ-PH [1]; PIP2: 5% in DMPC vesicles, assuming 50% available, read-out: KD from competition assay): 0.4 µM
Kd (PLCδ-PH [1]; [7]): 0.45 µM
binding weaker than I(145)P3 (PLCδ-PH [1]; relative to I(145)P3 binding to PLCδ-PH): two-fold
Kd ([5]; ITC, read-out: KD (dissociation constant)): 0.4 µM
binding affinity in words ([5]; PIP2 in vesicles): submicromolar affinities
ΔG ([5]; individual titrations, 25° C): -8.86 kcal/M and -8.72 kcal/M
ΔH ([5]; individual titrations, 25° C): -13.5 ± 0.1 kcal/M and -13.2 ± 0.1 kcal/M
ΔS ([5]; individual titrations, 25° C): −15.6 cal · M^−1 · K^−1 and −15.2 cal · M^−1 · K^−1
Stoichiometry n ([5]; individual titrations, 25° C, pH 6.8, quoted for IPn as the ligand, PIP2 in vesicles assuming 50% available): 1.08 ± 0.01 and 1.14 ± 0.01
Kd ([5]; individual titrations, 25° C, pH 6.8, read-out: KD): 0.32 µM and 0.4 µM
Stoichiometry n ([5]; mean of the titrations): 1.11 ± 0.04
ΔG ([5]; mean of the titrations): -8.79 ± 0.10 kcal/M
ΔH ([5]; mean of the titrations): -13.4 ± 0.2 kcal/M
ΔS ([5]; mean of the titrations): −15.4 ± 0.3 cal · M^−1 · K^−1
Kd ([5]; mean of the titrations, read-out: KD): 0.36 ± 0.06 µM

O=S(=O)(O)OC1C(OS(=O)(=O)O)C(OS(=O)(=O)O)C(OS(=O)(=O)O)C(OS(=O)(=O)O)C1OS(=O)(=O)O (centres unmarked) [I(SO4)6, inositol hexasulfate]
Kd (PLCδ-PH [1]; [7]): > 60 µM

O=P(O)(O)OC1[C@@H](O)[C@H](O)C(O)[C@H](O)[C@H]1O (some centres unmarked) [I-2-P, inositol-2-phosphate]
Kd (PLCδ-PH [1]; [7]): > 60 µM

O=P(O)(O)O[C@@H]1[C@@H](O)[C@H](OP(=O)(O)O)[C@@H](OP(=O)(O)O)[C@H](O)[C@@H]1O [L-I(145)P3]
Kd (PLCδ-PH [1]; [8]): 13 µM
Kd (PLCδ-PH [1]; [7]): 8.1 µM

phosphatidylinositol [PI]
binding to vesicles [6]: no binding
competition for I(145)P3 binding by lipid vesicles (PLCδ-PH [1]): no detectable competition; also recorded: did not compete

phosphatidylserine [PS]
binding to vesicles [6]: no binding
competition for I(145)P3 binding by lipid vesicles (PLCδ-PH [1]): no detectable competition; also recorded: did not compete
